Key:
[1] = Chemical stability of cholecalciferol and cholecalciferol phosphate disodium in donor, extraction and receiver fluids; assay type: physicochemical; settings: for chemical stability: 37° C., 24 h
Description: To assess the chemical stability of the test agents in the liquids in which they were to be dissolved for the skin permeation experiments, 1 mg/mL solutions of cholecalciferol and cholecalciferol phosphate disodium in propylene glycol (PG) were prepared and incubated at 37° C. for 24 h. In addition, 100 μg/mL cholecalciferol in 50:50 PG:ethanol mixture, 100 μg/mL cholecalciferol phosphate disodium in 90:10 methanol:water mixture as well as and in 50% PG 40% Methanol: 10% water pH 3.2 (90:10) were also incubated at 37° C. for 24 hours.

[2] = Franz cell porcine skin permeation and deposition of cholecalciferol and cholecalciferol phosphate disodium from PG solutions; assay type: in vitro ADME
Description: In order to assess the effect of adding phosphate to vitamin D chemical structure on the penetration of vitamin D through the skin porcine skin permeation studies were performed. Using the data from the pre-formulation studies solutions of cholecalciferol and cholecalciferol phosphate disodium, were prepared. […] The developed HPLC methods were used for quantification.
To study if the addition of the phosphate to cholecalciferol facilitated enhanced transdermal permeation, donor solutions were prepared by adding 2.5 mg/mL of cholecalciferol or cholecalciferol phosphate disodium in 100% PG. […] After 24 h, the receiver fluid was collected and analysed by HPLC methods. […]
Following homogenising solution with epidermis and dermis for 1 min by Ultra Turrax, solutions were filtered through 0.2 μm syringe filters of each bottle was collected and analysed by the HPLC method. The amount of cholecalciferol and cholecalciferol phosphate disodium on the surface of the skin, deposited in the SC, epidermis, dermis, and passed into the receiver fluid was determined. The percentage of mass recovery per cm^2 of skin was calculated, and the drug deposition profile could be obtained.

[3] = Solubility of cholecalciferol and cholecalciferol phosphate (disodium, acid); assay type: physicochemical
Description: Aliquots of cholecalciferol, cholecalciferol phosphate disodium, and cholecalciferol phosphate acid were added to a range of solvents including propylene glycol (PG), distilled water, methanol, ethyl acetate, ethanol, n-hexane, and the visual solubility was determined. A precise assessment of the saturation solubility was for some of the solvent systems was made using high-performance liquid chromatography (HPLC). In the HPLC solubility studies, an excess of each solute was added into 2 mL of each test solvent. The solutions were left stirring overnight at room temperature, (RT), 22° C. The saturation of the solutions was confirmed by the visual appearance of crystals and the drug suspensions were filtered through 0.2 μm cellulose acetate syringe filters, diluted with excess of mobile phase, and the solute concentration of each sample was assessed using HPLC.

cholecalciferol phosphate disodium
chemical stability ([1]; PG): 86±5.7% | chemical stability (in words) ([1]; conclusions): indication of chemical instability | chemical stability ([1]; extraction fluid 90:10 methanol:water): 98±1.6% | chemical stability ([1]; receiver fluid 50:50 PG:mobile phase (90:10 methanol:water pH 3.2)): 71±2.7% | deposition compared with cholecalciferol in each skin layer ([2]; p<0.05, ANOVA): significantly higher | vitamin D delivered into the skin compared to cholecalciferol ([2]; propylene glycol solution): 5 times | Solubility ([3]; solvent PG): 2.67 ± 0.31 mg/mL | Solubility ([3]; solvent PG + 5% ethanol): 0.34 ± 0.61 mg/mL

Source: patent publication US20260306421A1, “SYSTEMS AND METHODS FOR TRANSDERMAN PATCH DELIVERY” (VITAMAX PATCH WHOLESALER LLC, priority 2022, published 2026)
